Data from PubChem BioAssay (NCI).
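Protocol summary: plate cells (96-well), add compound at 5 concentrations, incubate 48 h, interpolate endpoints linearly. TGI: concentration producing complete growth inhibition.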

How the values were obtained:
Assay in all cases: DTP human tumour cell line panel, 48 h
SK-MEL-2 melanoma = system: SK-MEL-2 melanoma
MDA-MB-231 breast = system: MDA-MB-231 breast
U251 CNS = system: U251 CNS
RXF 393 renal = system: RXF 393 renal
OVCAR-5 ovarian = system: OVCAR-5 ovarian
NCI-H23 lung = system: NCI-H23 lung
SK-MEL-5 melanoma = system: SK-MEL-5 melanoma
HS 578T breast = system: HS 578T breast
HOP-92 NSCLC = system: HOP-92 NSCLC

Compound	TGI (SK-MEL-2 melanoma) [µM]	TGI (MDA-MB-231 breast) [µM]	TGI (U251 CNS) [µM]	TGI (RXF 393 renal) [µM]	TGI (OVCAR-5 ovarian) [µM]	TGI (NCI-H23 lung) [µM]	TGI (SK-MEL-5 melanoma) [µM]	TGI (HS 578T breast) [µM]	TGI (HOP-92 NSCLC) [µM]
CCCCN1C(=O)CC2[C@@H]3CCc4cc(OC)ccc4C3CC[C@]2(C)C1=O (some centres undefined)	> 10	> 10	> 10	> 10	> 10	> 10	> 10	> 10	–
Nc1nncc2[nH]cnc12	> 100	> 100	> 100	> 100	> 100	–	> 100	> 100	> 100
Cc1cn(CCCCCOC(=O)NC(CCCNC(N)=O)C(=O)O)c(=O)[nH]c1=O (centres undefined)	> 100	> 100	> 100	> 100	> 100	> 100	–	> 100	> 100
N#Cc1nc(CCCN2C(=O)c3ccccc3C2=O)oc1N	> 100	> 100	> 100	> 100	> 100	> 100	> 100	> 100	–
Cn1c2c(c3ccccc31)CCN1C(=O)C34CCCC3CC21S4 (centres undefined)	> 100	> 100	> 100	> 100	> 100	> 100	> 100	> 100	> 100
NC(N)=NS(=O)(=O)c1ccc(NC(=O)c2cccc3c(NNc4ccc(S(N)(=O)=O)cc4)c4ccccc4nc23)cc1	> 100	> 100	> 100	> 100	> 100	> 100	> 100	> 100	85.6
O=P(OCc1ccccc1)(OCc1ccccc1)C(O)/C=C/c1ccccc1 (centres undefined)	43.8	56.4	27.4	> 100	> 100	44.6	34.6	45.1	57.2
C[n+]1c(-c2ccc(NC(=O)c3ccc(C(=O)Nc4ccc(-c5cn6ccccc6[n+]5C)cc4)cc3)cc2)cn2ccccc21	> 100	> 100	> 100	> 100	> 100	> 100	> 100	> 100	> 100
NCCCCNCCCNC(=O)CNC(=O)CC(O)C(N)CCCC(NC(=O)C(CN)NC(=O)C(O)CNC(=O)CC(N)c1ccc(O)cc1)C(=O)O (centres undefined)	> 10	> 10	> 10	> 10	> 10	> 10	> 10	> 10	> 10
NC(Cc1[nH]nc2ccccc12)C(=O)O (centres undefined)	> 100	> 100	> 100	> 100	> 100	> 100	> 100	> 100	> 100
Nc1c(S(N)(=O)=O)cc(S(N)(=O)=O)cc1S(N)(=O)=O	–	> 100	> 100	> 100	> 100	> 100	> 100	> 100	> 100
